ChEMBL document CHEMBL1221208, “ATP-competitive inhibitors of the mitotic kinesin KSP that function via an allosteric mechanism” (Nat Chem Biol, 2007)
Changes are numbered by the printed parent chain. Activity calls are given as the source filed them. No cut-off for these calls is given here.

Key:
[1] = system: T1, Kinesin-like protein KIF11 (Homo sapiens), P52732 [D130V]; assay: Uncompetitive inhibition of human KSP D130V mutant with respect to microtubule using varying ATP levels in presence of saturating levels of microtubule by Lineweaver-Burke plot
T1 sequence (whole entry): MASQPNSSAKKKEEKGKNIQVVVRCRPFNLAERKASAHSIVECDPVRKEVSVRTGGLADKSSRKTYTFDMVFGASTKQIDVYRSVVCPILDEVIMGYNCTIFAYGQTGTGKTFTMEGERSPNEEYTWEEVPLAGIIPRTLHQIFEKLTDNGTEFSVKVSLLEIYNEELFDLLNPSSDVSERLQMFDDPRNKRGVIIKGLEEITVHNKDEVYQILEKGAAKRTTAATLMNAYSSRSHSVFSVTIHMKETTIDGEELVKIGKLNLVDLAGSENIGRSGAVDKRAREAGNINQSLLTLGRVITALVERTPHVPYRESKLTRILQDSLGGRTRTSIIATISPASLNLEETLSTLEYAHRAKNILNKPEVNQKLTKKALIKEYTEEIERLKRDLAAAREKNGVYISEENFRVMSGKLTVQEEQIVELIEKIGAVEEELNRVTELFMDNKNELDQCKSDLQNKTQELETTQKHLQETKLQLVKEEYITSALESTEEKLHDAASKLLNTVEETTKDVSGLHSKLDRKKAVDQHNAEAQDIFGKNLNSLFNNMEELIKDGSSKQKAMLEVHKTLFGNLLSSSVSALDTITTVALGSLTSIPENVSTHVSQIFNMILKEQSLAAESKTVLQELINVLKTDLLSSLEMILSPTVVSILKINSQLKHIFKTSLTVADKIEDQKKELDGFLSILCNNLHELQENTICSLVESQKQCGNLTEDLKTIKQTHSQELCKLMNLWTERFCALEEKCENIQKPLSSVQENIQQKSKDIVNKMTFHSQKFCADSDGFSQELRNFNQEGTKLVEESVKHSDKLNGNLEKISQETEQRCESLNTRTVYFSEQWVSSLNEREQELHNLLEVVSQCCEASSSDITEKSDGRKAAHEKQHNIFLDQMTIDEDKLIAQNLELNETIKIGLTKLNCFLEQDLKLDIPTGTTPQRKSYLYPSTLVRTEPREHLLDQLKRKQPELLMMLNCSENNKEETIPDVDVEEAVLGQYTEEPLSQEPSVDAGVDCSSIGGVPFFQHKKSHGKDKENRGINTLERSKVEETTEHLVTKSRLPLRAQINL

[2] = system: HCT-116; assay: Antiproliferative activity against 3x IC95 biaryl selected human HCT116 cells expressing Kinesin-like protein KIF11 D130V mutant after 72 hrs by Cell titer Glo assay; assay type: functional, cell-based; details: HCT-116, 72 h
[3] = system: HCT-116; assay: Antiproliferative activity against 3x IC95 biaryl selected drug-resistant against human HCT116 cells after 72 hrs by Cell titer Glo assay; assay type: functional, cell-based; details: HCT-116, 72 h
[4] = system: T2, Kinesin-like protein KIF11 (Homo sapiens), P52732 [A133D]; assay: Uncompetitive inhibition of human KSP A133D mutant with respect to microtubule using varying ATP levels in presence of saturating levels of microtubule by Lineweaver-Burke plot
T2 sequence (whole entry): T1 sequence (whole entry) with V130D, A133D

[5] = system: HCT-116; assay: Antiproliferative activity against IC50 biaryl selected drug-resistant against human HCT116 cells after 72 hrs by Cell titer Glo assay; assay type: functional, cell-based; details: HCT-116, 72 h
[6] = Inhibition of human KSP KHC-L5 mutant using varying ATP levels in presence of saturating levels of microtubule by Lineweaver-Burke plot
[7] = organism: Homo sapiens; assay: Competitive inhibition of human KSP KHC-L5 mutant with respect to ATP using varying ATP levels in presence of saturating levels of microtubule by Lineweaver-Burke plot
[8] = system: HCT-116; assay: Antiproliferative activity against human HCT116 cells expressing Kinesin-like protein KIF11 D130V mutant after 72 hrs by Cell titer Glo assay; assay type: functional, cell-based; details: HCT-116, 72 h
[9] = system: HCT-116; assay: Antiproliferative activity against human HCT116 cells after 72 hrs by Cell titer Glo assay; assay type: functional, cell-based; details: HCT-116, 72 h
[10] = system: HCT-116; assay: Induction of monopolar spindle formation in human HCT116 cells; assay type: functional, cell-based
[11] = system: HCT-116; assay: Antiproliferative activity against IC50 biaryl selected human HCT116 cells expressing Kinesin-like protein KIF11 D130V mutant after 72 hrs by Cell titer Glo assay; assay type: functional, cell-based; details: HCT-116, 72 h
[12] = system: HCT-116; assay: Antiproliferative activity against IC95 biaryl selected drug-resistant against human HCT116 cells after 72 hrs by Cell titer Glo assay; assay type: functional, cell-based; details: HCT-116, 72 h
[13] = molecular target: Kinesin-like protein KIF11 (Homo sapiens, UniProt P52732, I299F); assay: Inhibition of human KSP I299F mutant in 6x IC95 biaryl selected human HCT116 cells using varying ATP levels in presence of saturating levels of microtubule by Lineweaver-Burke plot; assay type: cell-based, HCT-116
Chain of Kinesin-like protein KIF11 (P52732 whole entry I299F): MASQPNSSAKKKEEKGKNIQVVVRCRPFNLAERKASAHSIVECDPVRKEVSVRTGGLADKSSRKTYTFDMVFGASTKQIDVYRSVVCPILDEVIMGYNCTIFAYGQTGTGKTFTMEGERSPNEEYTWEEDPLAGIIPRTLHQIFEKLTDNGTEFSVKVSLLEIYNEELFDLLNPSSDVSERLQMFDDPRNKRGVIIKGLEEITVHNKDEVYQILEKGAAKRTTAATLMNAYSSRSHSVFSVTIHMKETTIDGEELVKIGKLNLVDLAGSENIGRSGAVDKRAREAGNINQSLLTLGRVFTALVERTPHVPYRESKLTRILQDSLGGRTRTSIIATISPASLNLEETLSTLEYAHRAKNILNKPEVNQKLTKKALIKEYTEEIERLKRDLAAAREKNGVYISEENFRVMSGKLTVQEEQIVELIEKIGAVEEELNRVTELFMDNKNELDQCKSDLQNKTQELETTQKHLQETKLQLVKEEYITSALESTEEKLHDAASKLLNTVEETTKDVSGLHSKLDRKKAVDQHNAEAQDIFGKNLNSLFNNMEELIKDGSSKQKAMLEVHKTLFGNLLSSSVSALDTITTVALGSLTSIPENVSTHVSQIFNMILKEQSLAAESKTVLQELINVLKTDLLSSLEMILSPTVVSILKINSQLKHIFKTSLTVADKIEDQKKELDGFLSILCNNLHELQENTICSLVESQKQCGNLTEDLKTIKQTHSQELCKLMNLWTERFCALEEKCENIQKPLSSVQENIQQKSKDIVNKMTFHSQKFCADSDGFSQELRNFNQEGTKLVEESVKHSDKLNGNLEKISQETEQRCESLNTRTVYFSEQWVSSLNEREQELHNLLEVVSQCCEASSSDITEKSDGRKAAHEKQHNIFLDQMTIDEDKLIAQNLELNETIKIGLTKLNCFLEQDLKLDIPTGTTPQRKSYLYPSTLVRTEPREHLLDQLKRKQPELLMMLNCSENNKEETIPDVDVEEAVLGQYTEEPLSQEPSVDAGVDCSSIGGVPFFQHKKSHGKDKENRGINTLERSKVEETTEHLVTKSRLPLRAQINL

[14] = system: SK-OV-3; assay: Induction of monopolar spindle formation in human SKOV3 cells; assay type: functional, cell-based
[15] = system: HCT-116; assay: Antiproliferative activity against IC95 biaryl selected human HCT116 cells expressing Kinesin-like protein KIF11 D130V mutant after 72 hrs by Cell titer Glo assay; assay type: functional, cell-based; details: HCT-116, 72 h

inhibition [1]	IC50 [2]	IC50 [3]	inhibition [4]	IC50 [5]	Ki [6]	inhibition [7]	IC50 [8]	IC50 [9]	IC50 [11]	IC50 [12]	Ki [13]	IC50 [15]	Compound	Activity [10]	Activity [14]
Active	6.9 nM	2090 nM	Active	36 nM	2.1 nM	Active	0.45 nM	36 nM	0.83 nM	162 nM	66 nM	3.3 nM	O=C1CCc2cc(-c3ccc(C(F)(F)F)cc3)ccc2N1	Active	Active
Active	–	–	Active	–	6 nM	Active	–	–	–	–	–	–	NC(=O)Nc1ccc(-c2ccc(C(F)(F)F)cc2)cc1F	–	–
